Data on seven molecules can be found in patent US7199114B2, “Triterpene quaternary salts as biologically active surfactants” (The Regents of the University of Minnesota, priority 2002, dated 2007).

By melting point is commonly meant the temperature, or range, at which the solid turns liquid.

Series [1] has as its system dollar spot. The experiment in a line: Bentgrass dollar spot trial at Rutgers University, lesion count. To be noted: text summary of Table 7. It is filed as in vivo. Here is the method: Similar experiments were performed at Rutgers University to test for treatment of bentgrass infected with dollar spot. Test compounds were mixed in aqueous solution with the adjuvant Latron B-1956® (Rohm and Haas) and applied to the grass at a rate of 4.18 fluid ounces per 1000 square feet and an interval of every 7 days. The number of lesions per plot were then counted and averaged over the replicate plots. Treatment with fertilizers or other fungicides were also performed.

For series [2] the following is noted: background statement; cited from earlier work.
For series [3], the system named is Enterococcus faecium Vancomycin-sensitive (first listed). The experiment in a line: Anti-bacterial activity, broth culture MIC. Type of series: cell-based. To be noted: Enterococcus faecium, read-out: Approximate Minimum Inhibitory Concentration, MIC. The protocol:
(§1) Several uncharged or negatively charged triterpenes, and several positively charged triterpenes of the invention were tested for anti-bacterial activity against antibiotic-susceptible and antibiotic resistant strains of four types of bacteria of concern in clinics and hospitals. The triterpenes weres tested in broth culture in triplicate for ability to inhibit bacterial growth. The compounds tested are those listed below.
(§2) The lowest concentration which inhibits bacterial growth is referred to as the minimum inhibitory concentration (MIC), the standard measurement of anti-microbial activity.

In series [4] the test system is Enterococcus faecium Vancomycin-sensitive (second listed). The experiment in a line: Anti-bacterial activity, broth culture MIC. Type of series: cell-based. To be noted: Enterococcus faecium, read-out: Approximate Minimum Inhibitory Concentration, MIC. The protocol: as §1, §2
The subject of series [5] is Escherichia coli Ampicillin sensitive. Kind of series: Anti-bacterial activity, broth culture MIC. Type of series: cell-based. To be noted: read-out: Approximate Minimum Inhibitory Concentration, MIC. The protocol:
as §1, §2

For series [6], the system named is Eschericia coli Ampicillin-resistant. Kind of series: Anti-bacterial activity, broth culture MIC. Type of series: cell-based. To be noted: read-out: Approximate Minimum Inhibitory Concentration, MIC. Here is the method:
as §1, §2

Series [7] has as its system Staphylococcus aureus Methicillin-resistant. Kind of series: Anti-bacterial activity, broth culture MIC. It is filed as cell-based. To be noted: Staphylococcus aureus, read-out: Approximate Minimum Inhibitory Concentration, MIC. Here is the method:
as §1, §2

Series [8] relates to Staphylococcus aureus Methicillin-sensitive. Kind of series: Anti-bacterial activity, broth culture MIC. Type of series: cell-based. To be noted: Staphylococcus aureus, read-out: Approximate Minimum Inhibitory Concentration, MIC. Here is the method:
as §1, §2

In series [9] the test system is dollar spot. Kind of series: Antifungal treatment on turf grass plots (Example 84), dollar spot count. Type of series: in vivo. To be noted: Table 3 experiment, 17.8 g/1000 sq. ft. (Daconil Ultrex 3.2 oz./1000 sq. ft.). Here is the method:
(§3) Plots of creeping bentgrass, cv. “Pennlinks,” were treated with water based sprays of the test compounds. Sprays were delivered by CO2-charged sprayer to deliver the equivalent of 2 gallons of spray per 1000 sq. ft of plot area. Plots were 15 sq. ft. each, and treatments were mixed to apply material to 75 sq. ft (5 replicates), although only 4 replicates were treated. The quaternary salts of triterpenes were applied at 17.8 g/1000 sq. ft. for 14 days. Daconil Ultrex® was applied at 3.2 oz./1000 sq. ft. for 14 days. The experiment used a randomized complete block design, with 4 replicates per treatment. Disease pressure was high. Pennlinks […] is moderately to highly susceptible to both dollar spot and brown patch. For brown patch, caused by Rhozoctonia sofani. a visual estimate of the percent of the plot area affected was recorded. Turf quality was estimated on a 1 to 9 scale, with 1 being worst and 9 being perfect. A rating of 6 is considered acceptable.

Series [10] has as its system brown patch, caused by Rhozoctonia sofani. The experiment in a line: Antifungal treatment on turf grass plots (Example 84), brown patch. Type of series: in vivo. To be noted: Table 3 experiment, 17.8 g/1000 sq. ft. (Daconil Ultrex 3.2 oz./1000 sq. ft.). The protocol:
as §3

Series [11] is described as follows: Antifungal treatment on turf grass plots (Example 84), turf quality. Type of series: in vivo, creeping bentgrass, cv. Pennlinks. To be noted: Table 3 experiment, 1 to 9 scale, 9 perfect, 17.8 g/1000 sq. ft. (Daconil Ultrex 3.2 oz./1000 sq. ft.). The protocol:
as §3

The test system of series [12] is Pseudomonas aeruginosa Antibiotic sensitive. The experiment in a line: Anti-bacterial activity, broth culture MIC. To be noted: read-out: Approximate Minimum Inhibitory Concentration, MIC. Type of series: cell-based. The protocol:
as §1, §2

The subject of series [13] is Pseudomonas aeruginosa Multi-drug resistant. The experiment in a line: Anti-bacterial activity, broth culture MIC. It is filed as cell-based. To be noted: read-out: Approximate Minimum Inhibitory Concentration, MIC. The protocol: as §1, §2

In the case of `CCCCCCCCCC[N+](C)(CCCCCCCCCC)CC(=O)O[C@H]1CC[C@@]2(C)C(CC[C@]3(C)C2CC[C@@H]2C4[C@H]5OC[C@@]4(CCC5(C)C)CC[C@]23C)C1(C)C.[Cl-]` (stereo partly drawn) [Compound 80, 3β-[(N-methyl-N,N-didecyl)aminoacetyloxy]-19β,28-epoxy-18α-oleanan chloride], the “effectiveness against dollar spot” value in the series with dollar spot [1] is recorded as “particularly effective”.

`C=C(C)[C@@H]1CC[C@]2(CO)CC[C@]3(C)[C@H](CC[C@@H]4[C@@]5(C)CC[C@H](O)C(C)(C)[C@@H]5CC[C@]43C)[C@@H]12` [betulin]: in series [2], the solubility in water entry is recorded as “about 0.15 mg/l”.

With `Br.Br.C=C(C)[C@@H]1CC[C@]2(COC(=O)CCC[N+]34CCN(CC3)CC4)CC[C@]3(C)C(CCC4[C@@]5(C)CC[C@H](OC(=O)CCC[N+]67CCN(CC6)CC7)C(C)(C)C5CC[C@]43C)C12` (some centres unmarked) [Compound 25, Lup-20(29)-ene-3,28-bis[(N-(1,4-diazabicyclo[2.2.21]octyl)4-butyrate)]dibromide], the MIC in series [3] stood at 5 mg/L; in [4], 10 mg/L; in series [5] it was 50 mg/L; in series [6] it was 100 mg/L; in series [7] it was 2 mg/L; in [8], 2 mg/L.

Regarding `Br.C=C(C[n+]1ccc(N(C)C)cc1)[C@@H]1CC[C@]2(COC(C)=O)CC[C@]3(C)C(CCC4[C@@]5(C)CC[C@H](OC(C)=O)C(C)(C)C5CC[C@]43C)C12` (some centres unmarked) [Compound 12, 1-(3,28-(diacetoxy)lup-20(29)-ene-30-yl)4-(dimethylamino)pyridinium bromide], the MIC in series [3] amounted to 2 mg/L; in [4] it was 2 mg/L; in series [6], 50 mg/L; in [7] it was 5 mg/L; in [8], 2 mg/L.

Take `C=C(C)[C@@H]1CCC2(COC(=O)C[n+]3cccc(CNC(N)=O)c3)CC[C@]3(C)C(CCC4[C@@]5(C)CC[C@H](OC(=O)C[n+]6cccc(CNC(N)=O)c6)C(C)(C)C5CC[C@]43C)C12.Cl.Cl` (some centres unmarked): the melting point is 245 to 247 °C (dec.).

Consider `C=C(C[N+]12CCN(CC1)CC2)[C@@H]1CC[C@]2(COC(C)=O)CC[C@]3(C)C(CCC4[C@@]5(C)CC[C@H](OC(C)=O)C(C)(C)C5CC[C@]43C)C12.[Br-]` (some centres unmarked) [Compound 18, 1-[3,28-(diacetoxy)lup-20(29)-ene-30-yl]-1,4-diazabicyclo[2.2.2]octane bromide], for which the MIC in series [3], in [4], in series [7] and in series [8] was 5 mg/L in each case. Moreover, the “Dollar Spot # of spots per plot” value with dollar spot [9] (Jul. 2, 2001) is 20.8 spots per plot; with dollar spot [9] (Jul. 9, 2001), 14.3 spots per plot; in the series with dollar spot [9] (Jul. 16, 2001), 1.8 spots per plot; in the series with dollar spot [9] (Jun. 25, 2001), 16.8 spots per plot. The “Brown Patch % of plot infected” value is reported as 37.5% in series [10] (Jul. 2, 2001); “significantly suppress brown patch” in series [10] (Jul. 9, 2001); 12.0% in series [10] (Jul. 9, 2001, listed as Comp. 18); 6.3% in series [10] (Jul. 16, 2001); 14.8% in [10] (Jun. 25, 2001). In addition, the “Turf quality” value amounted to 4.63 in series [11] (Jul. 2, 2001); 5.50 in [11] (Jul. 9, 2001); 4.63 in series [11] (Jun. 25, 2001).

With `Br.C=C(C)[C@@H]1CC[C@]2(COC(=O)CCC[n+]3ccc(N(C)C)cc3)CC[C@]3(C)C(CCC4[C@@]5(C)CC[C@H](OC(=O)CCC[n+]6ccc(N(C)C)cc6)C(C)(C)C5CC[C@]43C)C12` (some centres unmarked) [Compound 40, Lup-20(29)-ene3,28-bis [N-(4-dimethylaminopyridinium)4-butyrate] dibromide], the MIC in series [3] is 2 mg/L; in series [4], 5 mg/L; in series [5], 20 mg/L; in series [6], 50 mg/L; in series [12] it was 200 mg/L; in series [13], 200 mg/L. Besides, the MIC in series [7] and in [8] was 5 mg/L in each case.
